# According to patent US9062070B2, “Inhibitors of the renal outer medullary potassium channel” (Merck Sharp & Dohme Corp., priority 2011, dated 2015):
# Tests used:
# hROMK (hKir1.1) = hROMK (hKir1.1) (Homo sapiens (Human), UniProt P48048); assay: Thallium Flux Assay (ROMK channel functional thallium flux, FLIPR-Tetra); type: cell-based; details: HEK293 cells stably expressing hROMK (hKir1.1)
# Procedure: HEK293 cells stably expressing hROMK (hKir1.1) were grown at 37° C. in a 10% CO2 humidified incubator in complete growth media: Dulbecco's Modified Eagle Medium supplemented with non-essential amino acids, Penicillin/Streptomycin/Glutamine, G418 and FBS. At >80% confluency, aspirate the media from the flask and rinse with 10 mL Calcium/Magnesium-free PBS. Add 5 mL of 1× trypsin (prepared in Ca/Mg Free PBS) to T-225 flask and return flask to 37° C./CO2 incubator for 2-3 minutes. To dislodge the cell, gently bang the side of the flask with your hand. Triturate the cells completely and then transfer the cells to 25 mL complete media. Centrifuge at 1,500 rpm for 6 min followed by resuspension in complete growth media and determine cell concentration. For typical re-seeding, 4E6 cells/T-225 flask will attain>80% confluency in 4 days. Under ideal growth conditions and appropriate tissue culture practices, this cell line is stable for 40-45 passages.
# • FluxOR™ Reagent (Component A) • FluxOR™ Assay Buffer (Component B)—10× Concentrate • PowerLoad™ Concentrate (Component C)—100× Concentrate • Probenecid (Component D)—Lyophilized sample is kept at −20° C. Water soluble, 100× after solubilization in 1 mL water. Store at 4° C. • FluxOR™ Chloride-free Buffer (Component E)—5× Concentrate • Potassium sulfate (K2SO4) Concentrate (Component F)—125 mM in water. Store at 4° C. • Thallium sulfate (Tl2SO4) Concentrate (Component G)—50 mM in water. Store at 4° C. • DMSO (dimethyl sulfoxide, Component H)—1 mL (100%) Reagent Preparation: FluxOR Working Solutions • 1000× FluxOR™ Reagent: Reconstitute a vial of component A in 100 μl DMSO; Mix well; Store 10 μl aliquots at −20° C. • 1× FluxOR™ Assay Buffer: Dilute Component B 10-fold with water; Adjust pH to 7.4 with Hepes/NaOH; Filter and store at 4° C. • Probenecid/Assay Buffer: 100 mL of 1× FluxOR™ Assay Buffer; 1 mL of reconstituted component D; Store at 4° C. • Loading Buffer (per microplate): 10 μl 1000× FluxOR™ Reagent; 100 μl component C; 10 mL Probenecid/Assay Buffer • Compound Buffer (per microplate): 20 mL Probenecid/Assay Buffer; 0.3 mM ouabain (10 mM ouabain in water can be stored in amber bottle/aluminum foil at room temperature); Test compound • 1× FluxOR™ Chloride-Free Buffer: Prepare 1× working solution in water. Can be stored at room temperature • Stimulant Buffer (prepared at 5× final concentration in 1× FluxOR™ Chloride-Free Buffer): 7.5 mM Thallium sulfate and 0.75 mM Potassium sulfate (to give a final assay concentration of 3 mM Thallium/0.3 mM Potassium). Store at 4° C. when not in use. If kept sterile, this solution is good for months. Assay Protocol—
# The ROMK channel functional thallium flux assay is performed in 384 wells, using the FLIPR-Tetra instrument. HEK-hKir1.1 cells are seeded in Poly-D-Lysine microplates and kept in a 37° C.-10% CO2 incubator overnight. On the day of the experiment, the growth media is replaced with the FluxOR™ reagent loading buffer and incubated, protected from light, at ambient temperature (23-25° C.) for 90 min. The loading buffer is replaced with assay buffer±test compound followed by 30 min incubation at ambient temperature, where the Thallium/Potassium stimulant is added to the microplate.
# • 1. Seed HEK-hKir1.1 cells (50 μl at 20,000 cells/well) in 384-well PDL coated Microplates • 2. Allow cells to adhere overnight in humidified 37° C./10% CO2 incubator • 3. Completely remove cell growth media from microplate and replace with 25 μl loading buffer • 4. Incubate Microplate at room temperature, protected form light, for 90 min • 5. Remove loading buffer and replace with 25 μl 1× Assay Buffer±test compound. • 6. Incubate microplate at room temperature, protected form light, for 30 min • 7. At FLIPR-Tetra 384: Add stimulant (Thallium/Potassium) solution to microplate and monitor fluorescence. Excitation=400 nm, Emission=460 & 580 nm. Collect data for ˜10 min. Data Calculation—
# Kir1.1 (ROMK1) = Kir1.1 (ROMK1) (Homo sapiens (Human), UniProt P48048); assay: Electrophysiology Assay (whole cell voltage clamp, IonWorks Quattro); type: cell-based; details: Chinese hamster ovary cells stably expressing Kir1.1; block during voltage step to 0 mV
# Procedure: Block of Kir1.1 (ROMK1) currents was examined by whole cell voltage clamp (Hamill et. al. […] Prior to an experiment, Kir1.1 expression was induced by overnight incubation with 1 mM sodium butyrate. […] After centrifugation, the cell pellet was resuspended in approximately 4.0 mL of bath solution and placed in the IonWorks instrument. The intracellular solution consisted of (in mM): 80 K gluconate, 40 KCl, 20 KF, 3.2 MgCl2, 3 EGTA, 5 Hepes, pH 7.4. […] Amphotericin B (Sigma A-4888) was prepared as a 40 mg/mL solution in DMSO. Voltage protocols and current recordings were performed using the IonWorks HT software/hardware system. […] No correction for liquid junction potentials was used. The test pulse, consisting of a 100 ms step to 0 mV from a holding potential of −70 mV, followed by a 100 ms voltage ramp from −70 mV to +70 mV, was applied before and after a 6 min compound incubation period. Test compounds were prepared by diluting DMSO stock solutions into the bath solution at 3× the final concentration and placed in the instrument in 96-well polypropylene plates. Current amplitudes were measured using the IonWorks software. To assess compound potency, the fractional block during the voltage step to 0 mV was calculated in Microsoft Excel (Microsoft, Redmond, Calif.), and dose-response curves were fitted with Igor Pro 4.0 (WaveMetrics, Lake Oswego, Oreg.).
# Chain of hROMK (hKir1.1) (P48048 whole entry): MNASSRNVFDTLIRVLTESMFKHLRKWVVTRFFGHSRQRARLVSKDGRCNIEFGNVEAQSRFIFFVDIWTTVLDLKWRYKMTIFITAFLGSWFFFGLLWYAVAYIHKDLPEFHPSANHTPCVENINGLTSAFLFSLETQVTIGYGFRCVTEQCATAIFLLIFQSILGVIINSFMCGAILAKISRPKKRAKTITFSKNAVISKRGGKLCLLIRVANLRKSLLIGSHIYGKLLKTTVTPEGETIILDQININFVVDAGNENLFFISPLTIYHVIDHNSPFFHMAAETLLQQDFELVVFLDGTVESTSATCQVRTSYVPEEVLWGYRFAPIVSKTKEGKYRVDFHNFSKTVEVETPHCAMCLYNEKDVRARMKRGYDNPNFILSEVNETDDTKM
# Chain of Kir1.1 (ROMK1) (P48048 whole entry): as above
SMILES,IC50 (hROMK (hKir1.1)),IC50 (Kir1.1 (ROMK1))
Cc1c([C@@H]2CN3CCN(C(=O)C4CCc5cc(-n6cnnn6)ncc54)C[C@@H]3CO2)ccc(F)c1C#N (stereo partly drawn) [Example 42],350 nM,130 nM
COc1cc(F)c([C@H]2CN3CCN(C(=O)C4CCc5nc(-n6cnnn6)ccc54)C[C@@H]3CO2)cc1C#N (stereo partly drawn) [Example 77],400 nM,290 nM
COc1cc([C@H]2CN3CCN(C(=O)C4CCc5nc(-n6cnnn6)ccc54)C[C@H]3CO2)ccc1C#N (stereo partly drawn) [Example 51],580 nM,190 nM
Cc1c(C#N)cccc1[C@@H]1CN2CCN(C(=O)C3CCc4cc(-n5cnnn5)ncc43)C[C@@H]2CO1 (stereo partly drawn) [Example 94],290 nM,–
Cc1c([C@@H]2CN3CCN(C(=O)C4CCc5nc(-n6cnnn6)ccc54)C[C@H]3CO2)csc1C#N (stereo partly drawn) [Example 15],540 nM,60 nM
Cc1c([C@@H]2CN3CCN(C(=O)C4CCc5cc(-n6cnnn6)ncc54)C[C@@H]3CN2)ccc(F)c1C#N (stereo partly drawn) [Example 106],400 nM,120 nM
N#Cc1cc([C@@H]2CN3CCN(C(=O)C4CCc5nc(-n6cnnn6)ncc54)C[C@@H]3CO2)ccc1F (stereo partly drawn) [Example 80],260 nM,120 nM
N#Cc1c(F)ccc([C@@H]2CN3CCN(C(=O)C4CCc5nc(-n6cnnn6)ccc54)C[C@H]3CO2)c1Cl (stereo partly drawn) [Example 27],230 nM,120 nM
"Cc1c([C@H]2CN3CCN(C(=O)C4CCc5nc(-n6cnnn6)ncc54)C[C@H]3CO2)ccc(F)c1C#N (single isomer, unassigned) [Example 2G]",270 nM,130 nM
O=C1OCc2c1ccc([C@@H]1CN3CCN(C(=O)C4CCc5nc(-n6cnnn6)ccc54)C[C@H]3CO1)c2C1CC1 (stereo partly drawn) [Example 95],180 nM,–
Cc1c([C@@H]2CN3CCN(C(=O)C4Cc5cnc(-n6cnnn6)nc5C4)C[C@@H]3CO2)ccc(F)c1C#N (stereo partly drawn) [Example 75],250 nM,150 nM
Cc1c([C@@H]2CN3CCN(C(=O)C4CCc5cc(-n6cnnn6)ncc54)C[C@@H]3CN2)ccc(F)c1C#N (stereo partly drawn) [Example 105],140 nM,80 nM
Cc1c([C@H]2CN3CCN(C(=O)C4CCCc5nc(-n6cnnn6)ccc54)C[C@H]3CO2)ccc(F)c1C#N (stereo partly drawn) [Example 9],610 nM,190 nM
N#Cc1c(F)ccc([C@@H]2CN3CCN(C(=O)C4CCc5cc(-n6cnnn6)ncc54)C[C@H]3CO2)c1Cl (stereo partly drawn) [Example 31],110 nM,80 nM
Cc1c([C@H]2CN3CCN(C(=O)C4CCc5cc(-n6cnnn6)ncc54)C[C@H]3CO2)ccc(C#N)c1F (stereo partly drawn) [Example 93],430 nM,180 nM
Cc1c([C@@H]2CN3CCN(C(=O)C4CCc5cc(-n6cnnn6)cnc54)C[C@H]3CN2)ccc(F)c1C#N (stereo partly drawn) [Example 99],430 nM,350 nM
